# US20210038607A1, “OXADIAZOLYLTHIOPHENE DERIVATIVES USEFUL AS HISTONE DEACETYLASE INHIBITORS” (Karus Therapeutics Limited, priority 2018, published 2021)
# Experiments:
# [1] = target: T1, Human HDAC1 (Homo sapiens, UniProt Q13547); experiment: HDAC1 biochemical assay, AMC-labeled peptide substrate; details: read-out: HDAC Isoform IC50 (nM) 1
# T1 construct: full length with C-terminal His-tag and C-terminal FLAG-tag; His (C); FLAG (C); host or cells: baculovirus expression system
# Method in brief: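 Two-step fluorogenic read: HDAC1 deacetylates 50 μM acetyl-lysine AMC peptide RHKK(Ac)AMC for 1 h at 30° C (pH 8.0, 1% DMSO, with compound), then developer digests the product for fluorescence at Ex/Em 360/460. Enzyme is full-length human, His/FLAG-tagged, insect-cell expressed, at 0.3 ng/ul.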
# [2] = target: T2, Human HDAC9 (Homo sapiens, UniProt Q9UKV0); experiment: HDAC9 biochemical assay, class IIa-specific substrate; details: read-out: HDAC Isoform IC50 (nM) 9
# T2 construct: amino acids 604-1066 with C-terminal His tag; His (C); host or cells: baculovirus expression system
# T2 sequence (Q9UKV0 604-1066 isoform Q9UKV0-5): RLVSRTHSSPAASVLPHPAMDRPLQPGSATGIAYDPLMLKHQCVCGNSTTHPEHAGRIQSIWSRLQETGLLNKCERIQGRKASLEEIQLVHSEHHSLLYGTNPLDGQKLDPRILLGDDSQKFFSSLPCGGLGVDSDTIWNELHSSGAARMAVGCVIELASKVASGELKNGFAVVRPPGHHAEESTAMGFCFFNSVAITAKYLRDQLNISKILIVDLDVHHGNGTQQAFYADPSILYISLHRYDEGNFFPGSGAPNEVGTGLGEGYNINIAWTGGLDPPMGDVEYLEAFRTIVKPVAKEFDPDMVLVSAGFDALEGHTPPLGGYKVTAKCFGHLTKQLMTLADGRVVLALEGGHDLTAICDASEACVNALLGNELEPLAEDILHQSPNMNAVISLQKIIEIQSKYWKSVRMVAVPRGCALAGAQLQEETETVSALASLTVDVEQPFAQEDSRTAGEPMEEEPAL
# Method in brief: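 HDAC9 residues 604-1066 (C-terminal His tag, baculovirus-expressed) at 0.06 ng/ul with 50 μM class IIa substrate Boc-Lys(trifluoroacetyl)-AMC in Tris-HCl pH 8.0 buffer with BSA and 1% DMSO. 30 min at room temperature, then developer added; fluorescence read at 360/460 nm Ex/Em.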
# [3] = target: T3, Human HDAC5 (Homo sapiens, UniProt Q9UQL6); experiment: HDAC5 biochemical assay, class IIa-specific substrate; details: read-out: HDAC Isoform IC50 (nM) 5
# T3 construct: full length with C-terminal His tag, MW=51.1 kDa; His (C); host or cells: baculovirus expression system
# T3 sequence (Q9UQL6 656-1122 limits assumed): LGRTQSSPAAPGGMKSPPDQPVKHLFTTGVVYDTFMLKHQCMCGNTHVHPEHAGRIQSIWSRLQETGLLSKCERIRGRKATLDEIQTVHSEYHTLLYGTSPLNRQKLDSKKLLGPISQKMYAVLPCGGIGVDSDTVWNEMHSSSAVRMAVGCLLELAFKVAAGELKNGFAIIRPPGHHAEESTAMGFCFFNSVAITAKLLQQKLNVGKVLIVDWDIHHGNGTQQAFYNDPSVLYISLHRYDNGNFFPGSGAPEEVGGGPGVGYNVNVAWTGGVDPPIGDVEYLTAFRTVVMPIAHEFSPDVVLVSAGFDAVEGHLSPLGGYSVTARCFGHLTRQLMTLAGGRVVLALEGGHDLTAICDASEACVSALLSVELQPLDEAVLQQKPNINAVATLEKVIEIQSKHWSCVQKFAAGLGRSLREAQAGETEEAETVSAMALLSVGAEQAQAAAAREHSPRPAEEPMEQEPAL
# Method in brief: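 Two-step fluorogenic read-out: deacetylated trifluoroacetyl-lysine AMC substrate (50 μM) digested by developer, measured at Ex/Em 360/460. Deacetylation step: 0.05 ng/ul His-tagged full-length baculoviral enzyme with compound, 30 min, room temperature, pH 8.0 Tris with 1 mg/mL BSA and 1% DMSO.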
# [4] = target: T4, Human HDAC7 (Homo sapiens, UniProt Q8WUI4); experiment: HDAC7 biochemical assay, class IIa-specific substrate; details: read-out: HDAC Isoform IC50 (nM) 7
# T4 construct: (a.a. 518-end) with N-terminal GST tag; GST (N); host or cells: baculovirus expression system
# T4 sequence (Q8WUI4 518-952 limits assumed): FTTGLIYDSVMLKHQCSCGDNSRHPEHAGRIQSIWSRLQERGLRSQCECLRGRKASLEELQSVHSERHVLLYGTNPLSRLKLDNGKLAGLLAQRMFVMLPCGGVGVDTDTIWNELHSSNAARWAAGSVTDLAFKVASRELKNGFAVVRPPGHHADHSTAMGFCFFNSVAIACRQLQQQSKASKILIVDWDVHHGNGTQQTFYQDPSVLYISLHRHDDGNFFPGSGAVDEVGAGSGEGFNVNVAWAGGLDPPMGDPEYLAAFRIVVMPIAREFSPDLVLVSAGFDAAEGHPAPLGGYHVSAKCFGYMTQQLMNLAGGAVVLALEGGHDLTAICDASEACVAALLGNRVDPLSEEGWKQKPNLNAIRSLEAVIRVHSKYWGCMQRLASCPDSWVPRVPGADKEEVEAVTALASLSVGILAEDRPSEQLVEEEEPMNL
# Method in brief: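 Two-step fluorogenic readout: class IIa-selective trifluoroacetyl-lysine AMC substrate (50 μM) deacetylated by N-terminal GST-HDAC7 fragment (0.001 ng/ul), then digested by developer, Ex/Em 360/460. Reaction: 30 min, room temperature, Tris-HCl pH 8.0, NaCl/KCl/MgCl2, 1 mg/mL BSA, 1% DMSO.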
# [5] = target: T5, Human HDAC4 (Homo sapiens, UniProt P56524); experiment: HDAC4 biochemical assay, class IIa-specific substrate; details: read-out: HDAC Isoform IC50 (nM) 4
# T5 construct: amino acids 627-1085 with N-terminal GST tag; GST (N); host or cells: baculovirus expression system
# T5 sequence (P56524 627-1084 limits assumed): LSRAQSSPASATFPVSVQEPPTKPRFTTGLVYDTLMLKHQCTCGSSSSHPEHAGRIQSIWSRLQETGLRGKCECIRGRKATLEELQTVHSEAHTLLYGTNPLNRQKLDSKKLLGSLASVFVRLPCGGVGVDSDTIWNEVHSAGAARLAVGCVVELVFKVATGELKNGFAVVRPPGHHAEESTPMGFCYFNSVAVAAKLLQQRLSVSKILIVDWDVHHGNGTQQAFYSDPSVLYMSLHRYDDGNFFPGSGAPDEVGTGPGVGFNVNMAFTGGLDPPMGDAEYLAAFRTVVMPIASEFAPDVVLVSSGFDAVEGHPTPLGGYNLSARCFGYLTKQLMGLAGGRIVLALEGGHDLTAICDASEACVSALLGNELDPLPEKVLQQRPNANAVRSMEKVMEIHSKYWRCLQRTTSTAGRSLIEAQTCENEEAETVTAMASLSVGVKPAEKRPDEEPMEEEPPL
# Method in brief: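 Two-step fluorogenic read-out: deacetylated BOC-Lys(trifluoroacetyl)-AMC (50 μM) was digested by developer and measured at Ex/Em 360/460. Deacetylation by 0.004 ng/ul HDAC4 (aa 627-1085, N-terminal GST) ran 30 min at room temperature, pH 8.0 Tris buffer, 1 mg/mL BSA, 1% DMSO.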
# [6] = target: T6, Recombinant human HDAC6 (Homo sapiens, UniProt Q9UBN7); experiment: HDAC6 biochemical assay, AMC-labeled peptide substrate; details: HDAC6; read-out: HDAC Isoform IC50 (nM) 6
# T6 construct: full length, MW=159 kDa; GST (N); host or cells: Sf9 insect cells (baculovirus)
# T6 sequence (Q9UBN7 1-1215): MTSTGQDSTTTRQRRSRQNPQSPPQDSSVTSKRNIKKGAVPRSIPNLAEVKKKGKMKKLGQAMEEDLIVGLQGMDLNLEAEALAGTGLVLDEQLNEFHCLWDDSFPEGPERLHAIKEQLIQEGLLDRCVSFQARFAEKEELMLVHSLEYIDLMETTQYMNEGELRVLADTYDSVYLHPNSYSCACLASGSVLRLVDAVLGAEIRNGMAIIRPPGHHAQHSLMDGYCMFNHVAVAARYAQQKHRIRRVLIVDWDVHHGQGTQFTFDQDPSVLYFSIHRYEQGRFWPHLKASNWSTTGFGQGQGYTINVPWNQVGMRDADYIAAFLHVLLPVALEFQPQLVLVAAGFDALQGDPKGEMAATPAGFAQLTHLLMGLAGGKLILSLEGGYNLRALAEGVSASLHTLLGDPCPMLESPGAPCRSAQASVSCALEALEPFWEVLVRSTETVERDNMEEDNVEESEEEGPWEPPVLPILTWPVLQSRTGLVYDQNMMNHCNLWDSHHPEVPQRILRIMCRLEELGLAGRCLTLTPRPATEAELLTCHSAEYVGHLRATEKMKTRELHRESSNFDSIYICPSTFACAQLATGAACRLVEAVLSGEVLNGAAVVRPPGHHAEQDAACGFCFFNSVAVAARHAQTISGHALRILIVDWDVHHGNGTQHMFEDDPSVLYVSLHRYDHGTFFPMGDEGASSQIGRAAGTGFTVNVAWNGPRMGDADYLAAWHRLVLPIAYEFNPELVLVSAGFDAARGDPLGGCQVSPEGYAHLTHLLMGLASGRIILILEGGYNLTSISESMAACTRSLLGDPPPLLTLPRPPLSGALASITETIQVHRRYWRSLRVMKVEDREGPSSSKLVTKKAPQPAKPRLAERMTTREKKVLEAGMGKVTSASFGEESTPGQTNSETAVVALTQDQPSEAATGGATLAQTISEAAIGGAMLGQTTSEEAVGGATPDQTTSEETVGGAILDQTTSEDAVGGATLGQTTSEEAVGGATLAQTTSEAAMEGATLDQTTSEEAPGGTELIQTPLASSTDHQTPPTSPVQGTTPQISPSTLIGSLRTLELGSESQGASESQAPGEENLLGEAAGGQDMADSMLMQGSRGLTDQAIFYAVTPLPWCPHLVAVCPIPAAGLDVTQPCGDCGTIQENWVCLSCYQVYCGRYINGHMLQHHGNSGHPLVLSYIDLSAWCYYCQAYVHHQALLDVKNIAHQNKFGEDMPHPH
# Method in brief: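 Two-step fluorogenic read-out: enzyme deacetylates 50 μM RHKK(Ac)AMC for 1 h at 30° C in pH 8.0 Tris buffer with BSA and 1% DMSO, then developer cleavage gives signal at Ex 360/Em 460. Enzyme: 0.3 ng/ul recombinant full-length human HDAC6, GST-tagged, Sf9-expressed.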
# T1 sequence (Q13547 whole entry, canonical isoform): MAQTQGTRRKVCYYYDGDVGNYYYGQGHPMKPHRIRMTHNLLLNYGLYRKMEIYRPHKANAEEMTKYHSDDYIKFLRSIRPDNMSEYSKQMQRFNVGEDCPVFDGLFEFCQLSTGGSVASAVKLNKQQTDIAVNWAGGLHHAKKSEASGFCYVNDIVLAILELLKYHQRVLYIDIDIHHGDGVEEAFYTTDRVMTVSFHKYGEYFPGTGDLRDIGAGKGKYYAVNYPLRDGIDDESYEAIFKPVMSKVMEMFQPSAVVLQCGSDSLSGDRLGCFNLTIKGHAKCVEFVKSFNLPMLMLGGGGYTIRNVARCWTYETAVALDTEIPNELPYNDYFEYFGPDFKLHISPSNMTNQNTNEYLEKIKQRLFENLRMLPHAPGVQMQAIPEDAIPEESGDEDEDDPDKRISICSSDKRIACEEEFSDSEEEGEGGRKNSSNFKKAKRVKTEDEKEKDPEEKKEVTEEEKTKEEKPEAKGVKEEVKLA
SMILES,IC50 [1],IC50 [2],IC50 [3],IC50 [4],IC50 [5],IC50 [6]
"FC(F)(F)c1cnnc(N(Cc2ccc(-c3noc(C(F)(F)F)n3)s2)c2ccccn2)c1 [Example EG, N-(Pyridin-2-yl)-5-(trifluoromethyl)-N-({5-[5-(trifluoromethyl)-1,2,4-oxadiazol-3-yl]thiophen-2-yl}methyl)pyridazin-3-amine]",> 10000 nM,> 10000 nM,≤ 10000 nM,> 10000 nM,≤ 10000 nM,≤ 10000 nM
"FC(F)(F)c1cnnc(N(Cc2ccc(-c3noc(C(F)(F)F)n3)s2)c2ncccc2N2CCOCC2)c1 [Example EH, N-[3-(Morpholin-4-yl)pyridin-2-yl]-5-(trifluoromethyl)-N-({5-[5-(trifluoromethyl)-1,2,4-oxadiazol-3-yl]thiophen-2-yl}methyl)pyridazin-3-amine]",> 10000 nM,> 10000 nM,≤ 10000 nM,≤ 10000 nM,≤ 10000 nM,≤ 10000 nM
"FC(F)(F)c1nc(-c2ccc(CN(c3ccc(C4CC4)cn3)c3cnccn3)s2)no1 [Example AA, N-(5-Cyclopropylpyridin-2-yl)-N-({5-[5-(trifluoromethyl)-1,2,4-oxadiazol-3-yl]thiophen-2-yl}methyl)pyrazin-2-amine]",> 10000 nM,≤ 10000 nM,≤ 10000 nM,≤ 10000 nM,≤ 10000 nM,≤ 10000 nM
"FC(F)(F)c1cnnc(N(Cc2ccc(-c3noc(C(F)(F)F)n3)s2)c2ccc(C(F)(F)F)nn2)c1 [Example EV, 6-(Trifluoromethyl)-N-({5-[5-(trifluoromethyl)-1,2,4-oxadiazol-3-yl]thiophen-2-yl}methyl)-N-[5-(trifluoromethyl)pyridazin-3-yl]pyridazin-3-amine]",> 10000 nM,> 10000 nM,≤ 10000 nM,≤ 10000 nM,≤ 10000 nM,≤ 10000 nM
"FC(F)(F)c1nc(-c2ccc(CN(c3cnccn3)c3ccc4ccncc4n3)s2)no1 [Example Y, N-(Pyrazin-2-yl)-N-({5-[5-(trifluoromethyl)-1,2,4-oxadiazol-3-yl]thiophen-2-yl}methyl)-1,7-naphthyridin-2-amine]",> 10000 nM,≤ 1000 nM,≤ 1000 nM,≤ 1000 nM,≤ 500 nM,≤ 1000 nM
"FC(F)(F)c1ncc(N(Cc2ccc(-c3noc(C(F)(F)F)n3)s2)c2cnccn2)cn1 [Example CV, N-(Pyrazin-2-yl)-2-(trifluoromethyl)-N-({5-[5-(trifluoromethyl)-1,2,4-oxadiazol-3-yl]thiophen-2-yl}methyl)pyrimidin-5-amine]",> 10000 nM,≤ 10000 nM,≤ 1000 nM,≤ 1000 nM,≤ 1000 nM,≤ 10000 nM
"FC(F)(F)c1nc(-c2ccc(CN(c3cnccn3)c3cc(C4CC4)ccn3)s2)no1 [Example AH, N-(4-Cyclopropylpyridin-2-yl)-N-({5-[5-(trifluoromethyl)-1,2,4-oxadiazol-3-yl]thiophen-2-yl}methyl)pyrazin-2-amine]",> 10000 nM,> 10000 nM,≤ 10000 nM,> 10000 nM,> 10000 nM,≤ 10000 nM
"Cc1cnc(N(Cc2ccc(-c3noc(C(F)(F)F)n3)s2)c2cc(C(F)(F)F)cnn2)cn1 [Example EO, N-(5-Methylpyrazin-2-yl)-5-(trifluoromethyl)-N-({5-[5-(trifluoromethyl)-1,2,4-oxadiazol-3-yl]thiophen-2-yl}methyl)pyridazin-3-amine]",> 10000 nM,> 10000 nM,≤ 10000 nM,≤ 10000 nM,≤ 10000 nM,≤ 10000 nM
"Cn1cnc2cc(N(Cc3ccc(-c4noc(C(F)(F)F)n4)s3)c3cnccn3)ncc21 [Example AE, N-{3-Methyl-3H-imidazo[4,5-c]pyridin-6-yl}-N-({5-[5-(trifluoromethyl)-1,2,4-oxadiazol-3-yl]thiophen-2-yl}methyl)pyrazin-2-amine]",> 10000 nM,≤ 10000 nM,≤ 500 nM,≤ 1000 nM,≤ 500 nM,≤ 10000 nM
"FC(F)(F)c1nccc(N(Cc2ccc(-c3noc(C(F)(F)F)n3)s2)c2cnccn2)n1 [Example CD, N-(Pyrazin-2-yl)-2-(trifluoromethyl)-N-({5-[5-(trifluoromethyl)-1,2,4-oxadiazol-3-yl]thiophen-2-yl}methyl)pyrimidin-4-amine]",> 10000 nM,≤ 1000 nM,≤ 1000 nM,≤ 1000 nM,≤ 1000 nM,≤ 10000 nM
"FC(F)(F)c1cnnc(N(Cc2ccc(-c3noc(C(F)(F)F)n3)s2)c2ccc(N3CCCC3)nn2)c1 [Example EW, 6-(Pyrrolidin-1-yl)-N-({5-[5-(trifluoromethyl)-1,2,4-oxadiazol-3-yl]thiophen-2-yl}methyl)-N-[5-(trifluoromethyl)pyridazin-3-yl]pyridazin-3-amine]",> 10000 nM,≤ 10000 nM,≤ 10000 nM,≤ 10000 nM,≤ 10000 nM,≤ 10000 nM
